# Laboratory results from ChEMBL document CHEMBL4715734, “Discovery of the Potent and Selective M1 PAM-Agonist N-[(3R,4S)-3-Hydroxytetrahydro-2H-pyran-4-yl]-5-methyl-4-[4-(1,3-thiazol-4-yl)benzyl]pyridine-2-carboxamide (PF-06767832): Evaluation of Efficacy and Cholinergic Side Effects” (J Med Chem, 2016).
# Columns and labels:
# [1] = Permeability of compound in MDCKII-LE cells; type: ADME, cell-based, Canis lupus familiaris; details: dog, MDCK; read-out: permeability
# [2] = test system: MDR1 (P-gp); test: Efflux ratio of permeability across basolateral to apical side over apical to basolateral side in dog MDCK-MDR1 cells; type: ADME, cell-based, Canis lupus familiaris
# [3] = Intrinsic clearance in human liver microsome; type: ADME; details: liver microsomes, read-out: CLH
# [4] = biological target: T1, Muscarinic acetylcholine receptor M1 (Homo sapiens, UniProt P11229); test: Positive allosteric modulation of human muscarinic M1 receptor stably expressed in CHO cells assessed as increase in Ach-induced intracellular calcium level preincubated for 10 mins followed by addition of Ach at EC20 concentration by Fluo-8AM dye based FLIPR TETRA method; type: functional, cell-based
# T1 sequence (P11229 whole entry): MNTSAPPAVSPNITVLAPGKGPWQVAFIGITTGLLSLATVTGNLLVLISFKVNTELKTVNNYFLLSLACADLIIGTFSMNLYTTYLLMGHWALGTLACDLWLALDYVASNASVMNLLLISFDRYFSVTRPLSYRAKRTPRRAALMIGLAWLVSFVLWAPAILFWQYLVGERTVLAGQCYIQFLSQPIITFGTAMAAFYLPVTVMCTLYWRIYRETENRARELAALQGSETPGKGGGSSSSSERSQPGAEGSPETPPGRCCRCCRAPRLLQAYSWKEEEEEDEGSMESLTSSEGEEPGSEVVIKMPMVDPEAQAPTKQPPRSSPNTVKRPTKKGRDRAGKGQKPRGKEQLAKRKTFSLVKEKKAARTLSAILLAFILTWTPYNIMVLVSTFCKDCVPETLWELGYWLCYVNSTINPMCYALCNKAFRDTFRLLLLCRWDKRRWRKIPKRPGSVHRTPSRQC
# [5] = Fraction unbound in rat brain; type: ADME, cell-free
# [6] = Ratio of AUC in C57BL/6 mouse brain to plasma at 1 mg/kg, sc; type: ADME, organism-based; details: brain and plasma, read-out: Ratio AUC
# [7] = Ratio of fAUC in C57BL/6 mouse brain to plasma; type: ADME, cell-free; details: brain and plasma, read-out: Ratio AUC
# [8] = Fraction unbound in C57BL/6 mouse plasma; type: ADME, cell-free
# [9] = Ratio of AUC in mouse brain to plasma; type: ADME, cell-free; details: brain and plasma, read-out: Ratio AUC
SMILES,Papp [1] [×10⁻⁶ cm/s],efflux ratio [2],CLint scaled [3] [mL/min/kg],EC50 [4] [nM],Fu [5] [%],Kp [6],Kp uu [7],Fu [8] [%],Kp [9]
CO[C@@H]1CCN(c2ccc(Cc3cc(C(=O)N[C@H]4CCCC[C@@H]4O)c(=O)n(C)c3C)cc2)C1,23,2.2,22,1690,–,–,–,–,–
Cc1cc(F)c(C(=O)N[C@H]2CCOC[C@@H]2O)cc1Cc1ccc(-n2cccn2)cc1,20,1.5,< 10,115,–,–,–,–,–
Cc1cnc(C(=O)N[C@H]2CCOC[C@@H]2O)cc1Cc1ccc(-c2cocn2)cc1,32,1.2,< 8,–,–,–,–,–,–
Cc1ccc(C(=O)N[C@H]2CCOC[C@@H]2O)cc1Cc1ccc(-n2cccn2)cc1,16,2.2,< 8,208,–,–,–,–,–
Cc1c(Cc2ccc(-c3ccn(C)n3)cc2)cc(C(=O)N[C@H]2CCCC[C@@H]2O)c(=O)n1C,13,3.1,13,102,–,–,–,–,–
"Cc1cnc(C(=O)N[C@H]2CCCC[C@@H]2O)cc1Cc1ccc(-n2cccn2)cc1 (single isomer, unassigned)",19,1.5,20,–,–,–,–,–,–
Cc1ncc(C(=O)N[C@H]2CCOC[C@@H]2O)cc1Cc1ccc(-n2cccn2)cc1,8,6.3,< 8,392,–,–,–,–,–
Cc1cnc(C(=O)N[C@H]2CCOC[C@@H]2O)cc1Cc1ccc(-n2cccn2)cc1,21,1.4,< 8,–,9,0.2,0.23,7.4,–
Cc1c(Cc2ccc(-n3cccn3)cc2)cc(C(=O)N[C@H]2CCCC[C@@H]2O)c(=O)n1C,23,2.7,20,29,–,–,–,–,0.05
Cc1c(Cc2ccc(-c3cscn3)cc2)cc(C(=O)N[C@H]2CCCC[C@@H]2O)c(=O)n1C,17,2.4,26,166,–,–,–,–,–
O=C(N[C@H]1CCOC[C@@H]1O)c1cc(Cc2ccc(-n3cccn3)cc2)ccn1,24,1.8,< 8,> 9000,–,–,–,–,–
Cc1cc(N)c(C(=O)N[C@H]2CCOC[C@@H]2O)cc1Cc1ccc(-n2cccn2)cc1 (racemic),19,1.9,23,> 9000,–,–,–,–,–
Cc1c(Cc2ccc(-n3cccn3)cc2)cc(C(=O)N[C@H]2CCOC[C@@H]2O)c(=O)n1C,20,> 5.3,< 8,20,–,–,–,–,–
Cc1c(Cc2ccc(-c3cocn3)cc2)cc(C(=O)N[C@H]2CCCC[C@@H]2O)c(=O)n1C,26,2.4,17,38,–,–,–,–,0.03
